For one compound, EC50 results are on record in patent US10047050B2, “3,4-di-substituted pyridine compound, methods of using and compositions comprising the same” (ARDEA BIOSCIENCES, INC., priority 2011, dated 2018).

The assay concerns the target T1, URAT-1 model (Homo sapiens, UniProt Q96S37).
T1 sequence (Q96S37 1-553): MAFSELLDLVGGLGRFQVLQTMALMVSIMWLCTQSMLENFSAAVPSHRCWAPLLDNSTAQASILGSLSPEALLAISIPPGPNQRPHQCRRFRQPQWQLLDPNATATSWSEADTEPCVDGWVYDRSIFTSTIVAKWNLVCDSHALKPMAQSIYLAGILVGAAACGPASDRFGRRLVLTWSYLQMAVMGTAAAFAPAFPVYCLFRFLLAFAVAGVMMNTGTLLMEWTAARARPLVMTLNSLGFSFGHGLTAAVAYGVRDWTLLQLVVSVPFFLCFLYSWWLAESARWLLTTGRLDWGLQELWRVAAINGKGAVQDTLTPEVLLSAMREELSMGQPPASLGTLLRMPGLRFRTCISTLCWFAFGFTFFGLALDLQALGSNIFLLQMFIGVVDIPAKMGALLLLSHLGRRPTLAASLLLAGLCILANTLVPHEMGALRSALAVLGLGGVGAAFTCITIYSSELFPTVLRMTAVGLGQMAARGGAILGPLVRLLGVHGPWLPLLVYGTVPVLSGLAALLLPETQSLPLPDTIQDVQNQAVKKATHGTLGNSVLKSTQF
Kind of assay: URAT1-model assay, 14C-uric acid transport in HEK293/URAT1-model cells. The class given is cell-based. The following applies: 125 μM 14C-uric acid, 10 minutes. The protocol:
Transfections of HEK293 cells with a model URAT1 construct was performed using L2000 transfection reagent (Invitrogen) as described by the manufacturer. After 24 h the transfected cells were split into 10 cm tissue culture plates and grown for 1 day after which the medium was replaced with fresh growth medium containing G418 (Gibco) at 0.5 mg/ml final concentration. Drug-resistant colonies were selected after approximately 8 days and then tested for ^14C-uric acid transport activity. The HEK293/URAT1-model cells are plated on Poly-D-Lysine Coated 96-well Plates at a density of 125,000 cells per well.
Cells were grown overnight (20-26 hours) at 37° C. in an incubator. Plates were allowed to come to room temperature and media was washed out with one wash of 250 μl of Wash Buffer (125 mM Na Gluconate, 10 mM Hepes ph 7.3). […] Assay Buffer is 125 mM Sodium Gluconate, 4.8 mM Potassium Gluconate, 1.2 mM Potassium phosphate, monobasic, 1.2 mM magnesium sulfate, 1.3 mM Ca Gluconate, 5.6 mM Glucose, 25 mM HEPES, pH 7.3. Plates were incubated at room temperature for 10 minutes then washed 3 times with 50 μl Wash Buffer and 3 times with 250 μl Wash Buffer. Microscint 20 Scintillation Fluid was added and plates were incubated overnight at room temperature to equilibrate. Plates are then read on the TopCount Plate Reader and an EC50 value generated. […]

For the compound `CC(C)(Sc1ccncc1-c1ccc(C#N)c2ccccc12)C(=O)O` [2-((3-(4-cyanonaphthalen-1-yl)pyridin-4-yl)thio)-2-methylpropanoic acid], the concentration for a half-maximal effect (EC50) – broadly, the midpoint of the concentration-response curve – was at most 50 nM.
